# Measurements as given in PMC8070829, “Discovery of New Coumarin-Based Lead with Potential Anticancer, CDK4 Inhibition and Selective Radiotheranostic Effect: Synthesis, 2D & 3D QSAR, Molecular Dynamics, In Vitro Cytotoxicity, Radioiodination, and Biodistribution Studies” (Molecules, 2021).
# Read-outs that look alike come from different tables or passages of the source.
# Key:
# [1] = test system: A-549 cells; assay: In vitro cytotoxicity, A-549; format: cell-based; conditions: Homo sapiens, A549; A-549 cell line
# From the text: (§1) Mammalian cell lines: MCF-7 cells (human breast cancer) cell line, A-549 (human Lung Carcinoma) and CHO-K1 cells (hamster ovary cancer) cell line were obtained from the American Type Culture Collection (ATCC, Rockville, MD). Fetal bovine serum, RPMI-1640, HEPES buffer solution, L-glutamine, gentamycin and 0.25% Trypsin-EDTA were purchased from Lonza (Belgium). All reagents and chemicals were of pharmaceutical pure grade. Non-carrier added Na^131I solution (pH = 7) was purchased from the Research and Production Facility, The Egyptian Atomic Energy Authority. Chemicals were purchased from Sigma Aldrich and Lonza. Monitoring of chemical reactions was done by using analytical TLC with Merck 60 F-254 silica-gel plates (Merck, Germany), and visualization was done with ultraviolet light.
# (§2) Cytotoxicity study was performed at the Regional Centre for Mycology and Biotechnology (RCMB), Al-Azhar University. Mammalian cell lines: human breast cancer cell line (MCF-7 cells), human colon cancer cell line (HCT-116 cells), and human lung cancer cell line (A-549 cells) were obtained from VACSERA Tissue Culture Unit, Cairo, Egypt. The cells were propagated in Dulbecco’s modified Eagle’s medium supplemented with 10% heat-inactivated fetal bovine serum, 1% L-glutamine, HEPES buffer, and 50 μg/mL gentamycin. All cells were maintained at 37 °C in a humidified atmosphere with 5% CO2 and were subcultured two times a week. For the cytotoxicity assay, the cells were seeded in 96-well plate at a cell concentration of 1 × 10^4 cells per well in 100 μL of growth medium. Fresh medium containing different concentrations of the test sample was added after 24 h of seeding. Serial two-fold dilutions of the tested chemical compound were added to confluent cell monolayers dispensed into 96-well, flat-bottomed microtiter plates (Falcon, NJ, USA) using a multichannel pipette. The microtiter plates were incubated at 37 °C in a humidified incubator with 5% CO2 for a period of 48 h. Three wells were used for each concentration of the test sample. Control cells were incubated without test sample and with or without DMSO. The little percentage of DMSO present in the wells (maximal 0.1%) was found not to affect the experiment. After incubation of the cells for at 37 °C, various concentrations of sample were added, and the incubation was continued for 24 h, and viable cells yield was determined by a colorimetric method. In brief, after the end of the incubation period, media were aspirated, and the crystal violet solution (1%) was added to each well for at least 30 min. The stain was removed, and the plates were rinsed using tap water until all excess stain is removed. Glacial acetic acid (30%) was then added to all wells and mixed thoroughly, and then the absorbance of the plates was measured after gently shaken on a microplate reader, using a test wavelength of 490 nm. All results were corrected for background absorbance detected in wells without added stain. Treated samples were compared with the cell control in the absence of the tested compound. All experiments were carried out in triplicate. The cell cytotoxic effect of each tested compound was calculated. The optical density was measured with the microplate reader to determine the number of viable cells, and the percentage of […] was calculated as (1 − (ODt/ODc)) × 100% where ODt is the mean optical density of wells treated with the tested sample and ODc is the mean optical density of untreated cells. The relation between surviving cells and drug concentration is plotted to get the survival curve of each tumor cell line after treatment with the specified compound.
# [2] = test system: MCF-7 cells; assay: In vitro cytotoxicity, MCF-7; format: cell-based; conditions: Homo sapiens, MCF7, MCF-7 breast cancer cell line
# From the text: as §1, §2
# [3] = test system: CHO-K1 cells; assay: In vitro cytotoxicity, CHO-K1; format: cell-based, hamster; conditions: CHO-K1 ovarian cell line
# From the text: as §1, §2
# [4] = target: T1, CDK4 enzyme (Homo sapiens, UniProt P11802); assay: CDK4 enzyme inhibition assay; format: biochemical
# T1 construct: purchased Reaction Biology Corp. (Kinase HotSpot service)
# Protocol: Reaction Biology Corp. Kinase HotSpotSM service (http://www.reactionbiology.com, accessed on 1 April 2019) was used for screening of tested compounds. CDK4 Kinase inhibitory activities were assessed by the HotSpot assay platform, which contained specific kinase/substrate pairs along with required cofactors. Base reaction buffer: 20 mM Hepes (pH 7.5), 10 mM MgCl2, 1 mM EGTA, 0.02% Brij35, 0.02 mg/mL BSA, 0.1 mM Na3VO4, 2 mM DTT, 1% DMSO. Testing compounds were dissolved in 100% DMSO to specific concentration. The serial dilution was conducted in DMSO. The reaction mixture containing the examined compound and 33P-ATP was incubated at room temperature for 2 h and radioactivity was detected by the filter-binding method. Kinase activity data were expressed as the percent remaining kinase activity in test samples compared to vehicle (dimethyl sulfoxide) reactions.
# For CDK4 enzyme inhibition, CDK4 ELISA kit, Cloud-Clone Corp, US was used. This kit is used for the in vitro quantitative measurement of CDK4 concentrations in tissue homogenates, cell lysates and other biological fluids with high sensitivity and specificity. The cancer cells were treated with different amounts of each compound according to the aforementioned protocol. In addition, the cells were lysed and then treated as instructed by the manufacturer’s protocol. The absorbance of each well was detected at 450 nm using an ELISA plate reader. The results are reported as half maximal inhibitory concentration (IC50).
# [5] = test system: CDK4; conditions: cited from earlier work
# [6] = target: CDK4; conditions: cited from earlier work; remark: listed apart in the source
# [7] = target: CDK6; conditions: cited from earlier work
# [8] = N-aryl aminothiazoles, in vitro
# T1 sequence (P11802 whole entry): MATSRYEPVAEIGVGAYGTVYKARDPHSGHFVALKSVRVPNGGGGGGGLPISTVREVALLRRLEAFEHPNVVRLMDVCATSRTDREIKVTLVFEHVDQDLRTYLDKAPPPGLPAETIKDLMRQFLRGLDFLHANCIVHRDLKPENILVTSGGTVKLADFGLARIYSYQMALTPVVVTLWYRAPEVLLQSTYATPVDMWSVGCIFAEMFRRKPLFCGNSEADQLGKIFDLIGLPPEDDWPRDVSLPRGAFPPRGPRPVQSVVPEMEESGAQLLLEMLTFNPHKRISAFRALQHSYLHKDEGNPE
# T1 sequence (P24385 whole entry partner): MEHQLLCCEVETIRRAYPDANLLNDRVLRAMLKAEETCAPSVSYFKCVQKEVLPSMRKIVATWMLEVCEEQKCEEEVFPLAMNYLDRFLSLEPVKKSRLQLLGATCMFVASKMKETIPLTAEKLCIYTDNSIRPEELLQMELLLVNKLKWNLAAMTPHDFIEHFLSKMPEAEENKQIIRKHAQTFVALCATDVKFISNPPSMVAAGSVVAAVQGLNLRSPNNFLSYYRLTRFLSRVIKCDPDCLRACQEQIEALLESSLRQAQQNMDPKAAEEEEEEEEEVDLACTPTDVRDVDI
SMILES,IC50 [1] [nM],IC50 [2] [nM],melting point [°C],IC50 [3] [nM],further results
CNC(=S)NN=C(C)c1cc2cc(Br)ccc2oc1=O [Compound 2a],451,161,220,604,–
C/C(=N\NC(=S)Nc1ccccc1)c1cc2cc(Br)ccc2oc1=O [Compound 2b],15,–,–,54,IC50 [4]: 36 nM
CC(=NN=C1SCC(=O)N1C)c1cc2cc(Br)ccc2oc1=O [Compound 3a],560,138,250 to 252,735,–
CC(=NN=C1SCC(=O)N1c1ccccc1)c1cc2cc(Br)ccc2oc1=O [Compound 3b],56,116,–,127,IC50 [4]: 127 nM
"CC(=NN=c1scc(-c2ccccc2)n1C)c1cc2cc(Br)ccc2oc1=O [Compound 4a, 6-Bromo-3-(1-((3-methyl-4-phenylthiazol-2(3H)-ylidene)hydrazono)ethyl)-2H-chromen-2-one]",537,360,200,757,–
"CC(=NN=c1scc(-c2ccccc2)n1-c1ccccc1)c1cc2cc(Br)ccc2oc1=O [Compound 4b, 6-Bromo-3-(1-((3,4-diphenylthiazol-2(3H)-ylidene)hydrazono)ethyl)-2H-chromen-2-one]",784,861,234,968,–
"CC(=NN=c1scc(-c2ccc(Br)cc2)n1C)c1cc2cc(Br)ccc2oc1=O [Compound 5a, 6-Bromo-3-(1-((4-(4-bromophenyl)-3-methylthiazol-2(3H)-ylidene)hydrazono)ethyl)-2H-chromen-2-one]",54,102,–,75,IC50 [4]: 142 nM
"C/C(=N\N=c1/scc(-c2ccc(Br)cc2)n1-c1ccccc1)c1cc2cc(Br)ccc2oc1=O [Compound 5b, 6-Bromo-3-(1-((4-(4-bromophenyl)-3-phenylthiazol-2(3H)-ylidene)hydrazono)ethyl)-2H-chromen-2-one]",305,305,229,414,–
"CC(=NN=C1SC(CC(=O)O)C(=O)N1C)c1cc2cc(Br)ccc2oc1=O (stereo not drawn) [Compound 6a, 2-(2-((1-(6-Bromo-2-oxo-2H-chromen-3-yl)ethylidene)hydrazono)-3-methyl-4-oxothiazolidin-5-yl)acetic acid]",95,55,280,131,–
"CC(=NN=C1SC(CC(=O)O)C(=O)N1c1ccccc1)c1cc2cc(Br)ccc2oc1=O (stereo not drawn) [Compound 6b, 2-(2-((1-(6-Bromo-2-oxo-2H-chromen-3-yl)ethylidene)hydrazono)-4-oxo-3-phenylthiazolidin-5-yl)acetic acid]",77,55,251,101,–
O=c1oc2ccc(Br)cc2cc1-c1csc(N/N=C/c2ccccc2)n1 [Compound 9a],34,60,–,91,IC50 [4]: 131 nM
Cc1ccc(C=NNc2nc(-c3cc4cc(Br)ccc4oc3=O)cs2)cc1 [Compound 9b],386,295,250,522,–
COc1ccc(C=NNc2nc(-c3cc4cc(Br)ccc4oc3=O)cs2)cc1OC [Compound 9c],244,479,238,649,–
O=c1oc2ccc(Br)cc2cc1-c1csc(NN=Cc2ccc([N+](=O)[O-])cc2)n1 [Compound 9d],513,780,–,901,–
CN(C)c1ccc(C=NNc2nc(-c3cc4cc(Br)ccc4oc3=O)cs2)cc1 [Compound 9e],242,432,253,507,–
O=c1oc2ccc(Br)cc2cc1-c1csc(NN=Cc2ccc(F)cc2)n1 [Compound 9f],200,276,278,495,–
O=c1oc2ccc(Br)cc2cc1-c1csc(NN=Cc2ccc(Br)cc2)n1 [Compound 9g],441,488,267,744,–
Cc1ccc(C=NNc2nc(-c3cc4cc(Br)ccc4oc3=O)cs2)o1 [Compound 9h],340,534,–,574,–
O=c1oc2ccc(Br)cc2cc1-c1csc(NN=Cc2ccc([N+](=O)[O-])o2)n1 [Compound 9i],75,124,–,189,IC50 [4]: 193 nM
"CN1CC[C@H](c2c(O)cc(O)c3c(=O)cc(-c4ccccc4Cl)oc23)[C@H](O)C1 [Flavopiridol, reference compound]",1.14,4.45,–,2.41,–
CC(C)(C)c1cnc(CSc2cnc(Nc3ccc(S(=O)(=O)NCCO)cc3)s2)o1 [IX],–,–,–,–,"IC50 [5, 8]: 233 nM"
CC(C)(CO)CNCc1ccc(Nc2ncc(SCc3ncc(C(C)(C)C)o3)s2)nc1 [VIII],–,–,–,–,"IC50 [5, 8]: 26 nM"
CSc1nc(C)c(-c2ccnc(Nc3ccc(N4CCN(C)CC4)cn3)n2)s1 [VIIa],–,–,–,–,Ki [6]: 7 nM; Ki [7]: 42 nM
CSc1nc(C)c(-c2nc(Nc3ccc(N4CCN(C)CC4)cn3)ncc2C#N)s1 [VIIb],–,–,–,–,Ki [6]: 4 nM; Ki [7]: 30 nM
CSc1nc(C)c(-c2nc(Nc3ccc(N4CCN(C)CC4)cn3)ncc2F)s1 [VIIc],–,–,–,–,Ki [6]: 2 nM; Ki [7]: 55 nM
c1cnc(Nc2ncc(-c3ccnc(OC4CCCCC4)n3)s2)nc1 [Va],–,–,–,–,IC50 ([5]; 2-aminothiazoles of Banyu): 4.2 nM
Cc1cc(-c2cnc(Nc3ncccn3)s2)nc(OC2CCCCC2)n1 [Vb],–,–,–,–,IC50 ([5]; 2-aminothiazoles of Banyu): 34 nM
Cc1cc(-c2cnc(Nc3nccc(CN4CCN(C)CC4)n3)s2)nc(OC2CCCCC2)n1 [Vc],–,–,–,–,IC50 ([5]; 2-aminothiazoles of Banyu): 9.2 nM
